The text below walks through data of a melting point compilation (Tetko et al.; mined from patent text by program, amines drawn as free bases though some values may be those of a salt).

For orientation: melting point means the temperature of the solid-liquid transition.

Molecules are shown by their SMILES.

In turn, `COc1ccc(-c2cc3ccccc3[nH]2)cc1NCc1ccc([N+](=O)[O-])c(O)c1` gave a melting point of 134 to 135 °C. Then `CC(N1CCN(c2nnn(Cc3ccc(C(C)(C)C)cc3)n2)CC1)C(O)(Cn1cncn1)c1ccc(F)cc1F` (configuration not stated), with 99 to 101 °C; and `O=C1Nc2cnc(N3CCN(c4ncccn4)CC3)nc2S/C1=C/c1ccc([N+](=O)[O-])cc1`, with 320 °C; and `C[C@@H]1CCCN1CCCOc1ccc(C(=O)Cc2ccccn2)cc1`, with 40 to 42 °C. Next, `CNS(=O)(=O)c1ccc(Nc2cc(N3CCCCC3)cc(-c3ccc(F)cc3)n2)cc1`: 191 to 192 °C; `COC(=S)c1ccc(C)c(C2=NOCC2)c1C`: 109 to 111 °C; `CC(=O)Oc1ccc(-c2cnc(C)[nH]c2=O)cc1OC(C)=O`: 178 to 179 °C. In turn, `O=C(O)COc1cccc2c1CCC(n1nc(-c3c(-c4ccccc4)nn4ccccc34)ccc1=O)C2=O` (configuration not stated) registered a melting point of 225 to 227 °C.

As for `CC(=CCc1c(C)c(N=Nc2ccc([N+](=O)[O-])cc2[N+](=O)[O-])c2ccccc2c1O)CCCC(C)CCCC(C)CCCC(C)C` (configuration not stated), the melting point is 110 °C. Then `CC(C)S(=O)(=O)C(C#N)=Cc1c(Cl)n(C)c2ccccc12`, with 141 °C; and `O=C(O)c1cn(C2CC2)c2c(F)c(N3CCN(O)CC3)c(F)cc2c1=O`, with 223 to 227 °C. In the case of `CCCCC(=N)NC(=O)Nc1ccc(N)cc1`, the melting point was in the range of 102 to 103 °C. Next, `O=C(CBr)C1=Cc2ccccc2OC1`: 87 °C. Then `CC(=O)c1cccc(NC(=O)c2ccc3c(c2)CC(CSCc2ccccc2)O3)c1O` (configuration not stated), with 119 to 121 °C. The compound `COc1ccc(S(=O)(=O)Nc2ccc(Cl)nc2Nc2ccccc2)cc1` returned a melting point of 206 to 208 °C.

Regarding `CC(=O)OC1CCC2(C)C3=CCC4(C)C(C(C)=O)CCC4C3CCC2C1` (configuration not stated), the melting point was in the range of 163 to 165 °C. Next, `OC(CN1CC=C(c2c[nH]c3ccccc23)CC1)C1COc2ccccc2O1` (configuration not stated): 177 °C. Then `CC(=O)Oc1ccc(C(=O)Nc2cc([N+](=O)[O-])ccc2C)cc1`, with 207 to 208 °C.

For `COC(=O)C1=Cc2cc(Br)cnc2N2CCCC2CC1` (configuration not stated), the melting point was 98 to 99 °C. Then `Cn1c(=O)c2c(nc(N3CCC(N)C3)n2Cc2ccccc2C#N)n(C)c1=O` (configuration not stated), with 186 to 189 °C; and `COC(=O)C1CC2c3cccc4[nH]cc(c34)CC2N(C(=O)C2CC2)C1` (configuration not stated), with 276 to 278 °C. Then `Cc1oc(-c2ccc(F)cc2)cc1CC(=O)O`, with 52 to 53 °C. Then `O=C(Nc1ccc(N2CCS(=O)(=O)CC2)c(C(F)(F)F)c1)N1CCc2cc(Oc3cc(Cl)ncn3)ccc21`, with 248 to 255 °C. In turn, `Cc1nc2cnc3ccccc3c2[nH]1` had a melting point of 242 to 245 °C. Then `CC(=O)Cc1nc2ccccc2c(=O)o1`, with 120 to 122 °C; and `O=C(Nc1ccnc(Br)c1)C1(O)CCCCC1`, with 179 °C; and `Nc1cc(Oc2ccc3c(C(=O)Nc4cccc(C(F)(F)F)c4)nccc3c2)ncn1`, with 197 to 200 °C. Then `CC1Sc2c(C(=O)O)c(=O)c3cc(F)c(N4CCNCC4)cc3n21` (configuration not stated), with 225 to 227 °C; and `CC1(C)CC(O)c2cc(OCc3ccccc3)ccc2O1` (configuration not stated), with 83 to 84 °C; and `N#CC1(Nc2ccccc2)CCN(C2CCCc3ccccc32)CC1` (configuration not stated), with 152 to 153 °C. The compound `Cc1nc[nH]c1CSCCN=C(NC#N)NCCCc1c[nH]cn1` gave a melting point of 140 to 142 °C. Next, `Cc1cc(-c2cccc(C(=O)CC(=O)Nc3cc(-c4ccc(F)cc4)ccc3NC(=O)OC(C)(C)C)c2)on1`: 100 to 101 °C; `O=C1CNc2ccc(F)cc2O1`: 199 °C; `NC(=O)C1=CN(CCCC(=O)NCCc2ccccc2)C=CC1`: 55 to 60 °C.

In turn, `NC(=O)NCc1ccc(-c2ccc3oc([N+](=O)[O-])c(-c4ccccc4)c3c2)cc1` displayed a melting point of 215 to 216 °C.

Regarding `CCCCCCOC(=O)Nc1ccc2c(c1)NC(=O)C2(C)C`, the melting point is 180 to 183 °C. Then `CN1C(c2ccc(C#N)cc2)=NC(C(F)(F)F)(C(F)(F)F)C1NC(=O)c1ccc(CF)cc1` (configuration not stated), with 189 to 190 °C. Next, `CC(C)(C)CCn1c(=O)c(=NNc2ccccc2)c(=O)n(-c2ccccc2F)c2ccccc21`: 112 to 114 °C; `O=P1(c2ccc(Oc3ccccc3)cc2)c2ccccc2CN1c1ccccc1` (configuration not stated): 207 to 208 °C; `Cc1nc(N2CCN(Cc3ccccc3)C2=O)sc1C(=O)NCc1ccccn1`: 149 to 151 °C.

The compound `COc1cccc2c(NCc3ccccc3)nc(N)nc12` yielded a melting point of 243 to 245 °C. In turn, `CC(C)(C(=O)O)C(c1ccc(OCc2ccc3ccccc3n2)cc1)c1ccc(OCc2ccc3ccccc3n2)cc1` displayed a melting point of 124 to 127 °C. Next, `Cc1cc(=O)c2[nH]c3ccccc3c2s1`: 295 to 296 °C. Then `COC(=O)[C@]12CN(Cc3ccccc3)C[C@@H]1C(c1ccc(OC)cc1)=CC[C@@]2(C)c1ccccc1` (racemic), with 132 °C; and `C=CCc1c(O)cc(C)c2ccc(=O)oc12`, with 177 °C; and `CCCCCCCCCCCCCCOc1ccc(NC(=O)c2cccc(CBr)c2)cc1`, with 140 to 142 °C. Then `N#Cc1ccc(OCCCCOc2ccc(-c3cc4cc(C#N)ccc4o3)cc2)cc1`, with 186 to 188 °C. Compound `CCCc1c(OCCCSc2ccc(CC(=O)O)cc2Cl)ccc2c(-c3ccccc3)coc12` yielded a melting point of 143 °C. Then `CC(C#N)N1CCC(C(=O)c2ccc(F)cc2)CC1` (configuration not stated), with 127 °C; and `CC(C)(C)OC(=O)CNc1nccc(-c2nc(=O)c3ccccc3s2)n1`, with 247 to 248 °C; and `Nc1nccnc1-c1cc(Cl)cc(Cl)c1Cl`, with 142 to 143 °C. Take `O=C1NC(=O)c2c1c(-c1ccccc1Cl)cc1sc3ccc(O)cc3c21`: the melting point lay in the range of 311 to 313 °C. Next, `CCOC(=O)C(Cc1ccccc1CCBr)(NC(C)=O)C(=O)OCC`: 86 to 86.5 °C. `CC(Cc1ccccc1)(C(=O)O)S(=O)(=O)c1cccs1` (configuration not stated): the melting point is 116 to 117 °C. Next, `CCOC(=O)N1CCOC(c2ccccc2)(c2ccccc2)CC1`: 122 to 123 °C; `Nc1nc(N)c2ncn(COCCOC=O)c2n1`: 238 to 240 °C; `COc1ccc(S(=O)(=O)Nc2ccc(F)cc2Nc2ccccc2)cc1`: 173 to 174 °C. In the case of `CCNC(=C[N+](=O)[O-])NCCSCc1nccs1`, the melting point was 115 to 116 °C.

In turn, `Cc1c(C#N)oc2c(-c3ccc(F)cc3)c(-c3ccc(S(C)(=O)=O)cc3)nn12` registered a melting point of 236 to 238 °C. Next, `O=C1CN(NC(=O)Sc2ccccc2)C(=O)N1`: 152 to 155 °C; `O=c1[nH]c(=S)[nH]c(-c2ccccc2)c1Cc1c(O)ccc2ccccc12`: 253 to 255 °C; `COCCOCCOCCOCCNS(=O)(=O)c1ccc(NC=C2C(=O)Nc3ccc4ncsc4c32)cc1`: 158 to 159 °C. `CC1CCc2ncc([N+](=O)[O-])cc2C1` (configuration not stated) registered a melting point of 50 to 52 °C.

For `CC[C@@H](Nc1nc(NCc2cccnc2)c2ncn(C(C)C)c2n1)C(C)(C)O`, the melting point fell in the range of 138 to 145 °C. Next, `O=C(O)COc1ccc(-c2nc3ncccc3[nH]2)c(O)c1`: 235 °C.

The compound `C=C1CC2(C)C(CCC2(C)O)C2CCC3=CC(=O)CCC3(C)C12` (configuration not stated) yielded a melting point of 155 to 157 °C.

Consider `CC(=O)Oc1ccc2c(c1)OC(c1ccccc1)(c1ccccc1)O2`, for which the melting point lay in the range of 81.5 to 82.5 °C. Compound `CC(C)(O)Cn1c(CON2C(=O)c3ccccc3C2=O)nc2c(N)nc3ccccc3c21` registered a melting point of 270 to 272 °C. Next, `CCCCc1nc(C(F)(F)F)c(C(=O)OCC)n1Cc1cccc2c1ccn2-c1ccccc1-c1nn[nH]n1`: 93 to 95 °C; `COC1CC2(C)C(CCC3C4CC(C)C(C(C)=O)C4(C)CC(=O)C32)CC1O` (configuration not stated): 180 to 182 °C; `C=C1N(C)C(=O)OC12CCN(CC=C(c1ccccc1)c1ccccc1)CC2`: 126 to 127 °C. Next, `CCN(c1ccc(OC)cc1)S(=O)(=O)c1cccc(C(=O)Nc2ccc(C#N)cc2)c1`: 168 to 169 °C.

Consider `CC(C)(C)c1ccc(-c2[nH]c3cccc4c3c2CCNC4=O)cc1`, for which the melting point fell in the range of 243 to 244 °C.

In the case of `O=C1CCc2cc(Cl)c(S(=O)(=O)Cl)cc21`, the melting point fell in the range of 146 to 148 °C. In turn, `Cc1nn(CCN)c(C)c1Cc1cc(Cl)cc(Cl)c1` registered a melting point of 70 to 72 °C. The compound `CCCCc1ncc(/C=C(\Cc2ccc(N)cc2)C(=O)O)n1Cc1ccccc1Cl` displayed a melting point of 191 to 192 °C.

As for `Cc1cc(COc2ccccc2)c2c(N)c(C(N)=O)sc2n1`, the melting point was in the range of 194 to 196 °C. The compound `CCSC1(SC)CCC2C3CCC4=CC(=O)C=CC4(C)C3(F)C(OC(C)=O)CC21C` (configuration not stated) gave a melting point of 140 to 142 °C. In the case of `O=C(NC1CCCCC1O)c1ccccc1` (configuration not stated), the melting point lay in the range of 172 to 173 °C. `Cn1c(Cl)cnc1CN1C(=O)C2(COc3cc4c(cc32)OCCO4)c2ccccc21` (configuration not stated) showed a melting point of 91 to 95 °C. Then `COC(=O)COc1cc2c(c3c1cc(C)n3Cc1ccccc1)CCC2`, with 135 to 138 °C; and `COc1ncccc1Nc1c(NC(NC(=O)c2cccc(C)c2)C(C)(C)C)c(=O)c1=O` (configuration not stated), with 224 to 226 °C.

In turn, `C/C(Cl)=C/CC(C)(C(=O)O)C(=O)O` registered a melting point of 99 to 101 °C. Next, `CCOC(=O)c1c(C)n(Cc2ccc3ccccc3n2)c2ccc(OCc3ccc4ccccc4n3)cc12`: 162 to 163 °C; `O=[N+]([O-])c1cc2n(n1)CCOC2`: 110 to 112 °C.

For `COC(=O)CCc1ccc(-n2c(-c3ccccc3)nn(-c3ccc(C#N)cc3)c2=O)cc1`, the melting point lay within 190 to 194 °C.

As to `O=C(OCCOc1ccccc1)c1cccc(NC(=O)C(CS)Cc2ccccc2)c1` (configuration not stated), the melting point fell in the range of 98 to 100 °C.
